We go through six compounds from US4442300A, “Therapeutically active compounds” (Aktiebolaget Draco, priority 1980, dated 1984).

In data set [1] the test system is histamine-induced bronchospasm. The data set is described as follows: Protecting effect against histamine-induced bronchospasm after oral administration (test C2). Conditions: for ED50: Cavia porcellus, 0.05 h, histamine aerosol, read-out: Dose protecting 50% of the test animals for more than 3 minutes (ED50). It is filed as in vivo, guinea-pigs, Dunkin-Hartley strain. How it is done: Male guinea-pigs, Dunkin-Hartley strain, 150-200 g, were used in the study. The animals were starved for about 15 hours (water ad libitum) before the administration, by a stomach tube, of test compound or vehicle (controls). To establish an adequate time period between administration and histamine exposure, the maximum plasma level of terbutaline produced from the hydrolysis of the given pro-drugs of terbutaline was determined. Thus, blood samples (in pre-experimental series) were collected from guinea-pigs at different times after the administration of the test compound and the plasma level of terbutaline was determined by a massfragmentographic assay. A peak in the plasma terbutaline was noted 50-60 minutes after the administration, and this time was selected as time for start of histamine exposure.
The histamine aerosol was generated by Bird inline nebulizers from a solution containing 0.02% histamine-HCl and 3% glycerole. The protecting effect was estimated from the delay in appeareance of signs of anoxia in drug-treated animals. […] Drug-treated guinea-pigs without any signs of respiratory influence from the histamine during these first 3 minutes were denoted as protected.

Data set [2] deals with isolated auricles from guinea-pig heart. Nature of the data set: In vitro test on isolated guinea-pig auricles (test D1). Further details: species or system strain Dunkin Hartley. The following applies: for Emax: Cavia porcellus; for any chronotropic or inotropic effect: isolated auricles, in words; for potentiating or inhibiting effect on the chronotropic and inotropic effect of terbutaline: same concentration as terbutaline. How it is done: Male guinea-pigs strain Dunkin Hartley (400-500 g) were used. After bleeding and removal of the heart the auricles were dissected free from the ventricular part and submerged into carbogen aerated Krebs solution of 37°. The frequency and force of the spontaneously beating preparation was recorded by a Grass transducer FTO3. In the polygraph (Grass 7D) the signals from the isometric transducer passed a trigger function from the drive amplifier to the tachograph to record the rate.
The esterase inhibitor eserine was added to a concentration of 1.10^-6 mol/l in the organ bath before the drugs to be tested were added. The intrinsic activity of the test compounds on the heart preparation, that is their effect on heart rate (chronotropic effect) and their effect on the force of the heart beats (inotropic effect), and their possible interaction with terbutaline was studied.

Data set [3] deals with histamine evoked rise of the insufflation pressure. The data set is described as follows: Duration of bronchospasmolytic activity after local administration via aerosol, histamine-induced bronchoconstriction (test B). It is filed as in vivo, Guinea-pigs, strain Dunkin-Hartley. How it is done: Guinea-pigs, strain Dunkin-Hartley, of either sex, weighing 500-900 g were anaesthetized by i.p. injection and i.v. infusion of pentobarbital. The animals were artifically ventilated with a Braun constant volume respiration pump giving 70 strokes/min and a stroke volume of 0.75 ml/100 g body weight. Intratracheal pressure (insufflation pressure) was measured by use of a T-junction on the tracheal cannula connected to a Statham pressure transducer P23BC. An increase in intratracheal pressure, indicating bronchoconstriction, was elicited by i.v. injection (v. jugularis) of histamine. The constricting agent was injected every 10 minutes by a timer-controlled perfusor in a dose giving about 80% of the maximum contractile response (1-2.10^-8 mol/kg). The bronchospasmolytic drugs to be tested were solved in aq. dest. containing 3% glycerol and nebulized by use of a Bird Inline Nebulizer (air pressure 0.2 MPa; droplet spectrum around 1 micron). The generated aerosol was lead through the respirator and tracheal cannula. Inhalation of drug was going on during periods of 30 min. The resulting bronchodilator effect was calculated from the percentage reduction of the histamine evoked rise of the insufflation pressure.
The concentration of the test substance in the solved composition that when nebulized produced 50% inhibition of the increased tracheal pressure (ED50) was measured. […]

For the next data set, the system named is isolated tracheal muscle. Nature of the data set: Bronchodilating effect in vitro on isolated guinea-pig trachea (test C1). Conditions: for Potentiating or inhibiting effect on the bronchodilating effect of terbutaline: 5 min pretreatment with test compound; for EC50: Cavia porcellus; for blockade of the bronchodilating effect by propranolol: propranolol 3.10^-6 mol/l (concentration given for I and II). The protocol: The trachea from guinea-pigs was dissected out, cut spirally and transferred to a 10 ml organ bath containing Krebs solution of 37° and aerated with carbogen. The tracheal strip was contracted by pilocarpine (4.10^-6 mol/l) producing a tension of about 1.5 g. Isometric recording was made by use of a transducer FTO3 and a Grass polygraph 7D. Before the administration of the test compound the esterase inhibitor eserin was added to the bath in a concentration of 1.10^-6 mol/l. The concentration of the test substances which produces 50% relaxation (EC50) of the pilocarpine contracted trachea was recorded as well as potentiating or inhibiting influence of the test substances of the invention on the relaxing effect of terbutaline. In this last mentioned test the muscle preparation was pretreated with the test compounds during 5 minutes, before the response of terbutaline was recorded.

In the next data set the test system is heart rate. The data set is described as follows: In vivo effect of the test compounds on the heart rate in dogs (test D2). Also on record: species or system dog (Beagle). Conditions: oral; for Slope of line, increase in heart rate vs. logarithm of corresponding serum conc.: terbutaline 0.01-0.1 mg/kg, compound I 0.3-2.7 mg/kg. How it is done: (§1) Five dogs (Beagle, .male., 13-18 kg) have been used repeatedly in the study. Each dog was used at most once a week. Food was withheld from the animals the night before the experiment (water ad libitum). The test compound was solved or suspended in 8 ml of distilled water, and delivered into the back of the mouth by use of a syringe and a short tube. This oral supply was followed by a water rinse of 8 ml.
The blood was collected from the cephalic veins in the forelegs by use of evacuated tubes. The esterase inhibitor diisopropylfluophosphate (DFP) was added, the samples centrifugated (+5°) and the amount of terbutaline in plasma determined by a massfragmentographic analysis method. The serum level of terbutaline indicates the degree of bronchospasmolytic effect of the test compounds, provided terbutaline is solely responsible for the bronchospasmolytic effect. This method does, however, not measure the intrinsic activity of the test compounds.
(§2) The amounts of the test substances to be administered were selected so that the level of terbutaline, when administered per se, corresponds to the serum levels obtained and found effective in patients at clinical use, that is a level of terbutaline of at least 2 ng/ml serum for 6 to 8 hours. The doses of the test substances of the invention were selected so that the serum levels of terbutaline obtained would correspond approximately with the serum levels obtained after administration of terbutaline per se.
The heart rate was determined by a stethoscope (the mean of three determinations during a 5-minute periode) before the administration of drug and before each blood sampling.
The relative effect of the test compounds on the heart rate of the test animals was illustrated by plotting in a diagram the increase in heart rate measured at a certain serum concentration of terbutaline versus the logarithm of the said terbutaline concentration in serum. Only values before and up to the maximal increase in heart rate were used. This method will produce a graph consisting of a substantially straight line. […]

A short description of data set [4]: Duration of serum levels of terbutaline after oral administration to unanaesthetized dogs (test A). In kind it is in vivo, dog (Beagle). Conditions: p.o., >= 2 ng/ml serum. The protocol: A. Duration of serum levels of terbutaline after administration of compounds of the invention to unanaesthetized dogs
as §1
The blood was collected from the cephalic veins in the forelegs by use of evacuated tubes. The esterase inhibitor diisopropylfluophosphate (DFP) was added, the samples centrifugated (+5°) and the most amount of terbutaline in plasma determined by a massfragmentographic analysis method.
as §2

The conditions of data set [5]: cited from earlier work; for duration of bronchospasmolytic activity, in words: compared with terbutaline or salbutamol.
[6] abbreviates: read-out: chromotropic effect on isolated auricle (relative values).
[7] abbreviates: read-out: inotropic effect on isolated auricle (relative values).
Setting [8] is: isolated trachea, Table 3, read-out: concentration producing a bronchodilating effect.
The mark [9] stands for this setting: pilocarpine contracted trachea (4.10^-6 mol/l), eserin 1.10^-6 mol/l, read-out: Concentration of test substance producing 50% relaxation of trachea (EC50).

Several values for one entry are separate records, joined by “and”; a condition that tells them apart may be missing. Identical values can stand only once. Entries after “also recorded” stand apart in the source; their conditions may differ. Like-named read-outs stand apart in the source and are kept apart here.

Consider `CC(C)(C)NCC(O)c1cc(OC(=O)c2ccc(OC(=O)C(C)(C)C)cc2)cc(OC(=O)c2ccc(OC(=O)C(C)(C)C)cc2)c1` (stereo not drawn) [Compound I], for which, in data set [1], the “protection against histamine-induced bronchospasm on molar basis relative to terbutaline” value is reported as “about equally effective as terbutaline”; the ED50 was 1.1 mg/kg and 1.6 µmol/kg. In addition, the Emax in data set [2] (setting [6]) is 0%. Moreover, the Emax in data set [2] (setting [7]) is 0%. Besides, in data set [2], the “any chronotropic or inotropic effect” value is “none”; the “potentiating or inhibiting effect on the chronotropic and inotropic effect of terbutaline” value was “No potentiating or inhibiting effect”. Also, the onset of effect result in data set [3] is recorded as “comparable to that produced by terbutaline”. For the same compound, the “duration of bronchospasmolytic effect compared with terbutaline” value in data set [3] (at ED50 dose level) is “about three times longer”. Also, in the data set with isolated tracheal muscle, the “Potentiating or inhibiting effect on the bronchodilating effect of terbutaline” value is “none and No potentiating or inhibiting activity”; the “blockade of the bronchodilating effect by propranolol” value (from here on “blockade”) was “not blocked”. In addition, the EC50 in the data set on isolated tracheal muscle (setting [8]) is around 1800 nM. Moreover, the EC50 in the data set on isolated tracheal muscle (setting [9]) amounted to 1800 ± 600 nM. Besides, the “concentration range for bronchodilating effect relative to terbutaline” value in the data set with isolated tracheal muscle (isolated trachea) is “about 9 times higher”. Besides, in the data set on heart rate (dogs), the “increase in heart rate relative to terbutaline” value is reported as “relatively much lower; also recorded: considerably reduced”. Moreover, in the data set with heart rate, the “Slope of line, increase in heart rate vs. logarithm of corresponding serum conc.” value amounted to 0.53. Also, the “time with clinically useful serum level of terbutaline relative to terbutaline” value in data set [4] is on record as “at least twice as long”. The “time with a serum level of terbutaline of 2 ng/ml or more” value in data set [4] (listed as compound I) came to 16 h.
As to `CC(C)C(=O)Oc1ccc(C(=O)Oc2cc(OC(=O)c3ccc(OC(=O)C(C)C)cc3)cc(C(O)CNC(C)(C)C)c2)cc1` (stereo not drawn) [II], in data set [1], the “protection against histamine-induced bronchospasm on molar basis relative to terbutaline” value was “about equally effective as terbutaline”; the 50% effective dose (ED50) was 1.1 mg/kg and 1.6 µmol/kg. In data set [2] (setting [6]), the Emax came to 0%. Further, the Emax in data set [2] (setting [7]) was determined as 0%. Further, in data set [2], the “any chronotropic or inotropic effect” value is “none”; the “potentiating or inhibiting effect on the chronotropic and inotropic effect of terbutaline” value is listed as “No potentiating or inhibiting effect”. Further, in the data set with isolated tracheal muscle, the “Potentiating or inhibiting effect on the bronchodilating effect of terbutaline” value was “none and No potentiating or inhibiting activity”; the “blockade” value is listed as “not blocked”. The EC50 in the data set with isolated tracheal muscle (setting [8]) was around 1800 nM. The EC50 in the data set with isolated tracheal muscle (setting [9]) was determined as 1800 ± 600 nM. Further, the “concentration range for bronchodilating effect relative to terbutaline” value in the data set on isolated tracheal muscle (isolated trachea) is “about 9 times higher”.
Regarding `Cc1ccc(C(=O)Oc2ccc(C(O)CNC(C)(C)C)cc2OC(=O)c2ccc(C)cc2)cc1` (stereo not drawn) [bitolterol], the “duration of bronchospasmolytic activity, in words” value in data set [5] is listed as “comparable with that of salbutamol”.
With `CC(C)(C)NCC(O)c1ccc(O)c(CO)c1` (stereo not drawn) [salbutamol], the “duration of bronchospasmolytic activity, in words” value in data set [5] is given as “about equal to the duration of terbutaline”.
Regarding `CC(C)(C)NCC(O)c1cc(O)cc(O)c1` (stereo not drawn) [terbutaline, reference compound], the “serum concentration necessary for desired therapeutic activity” value in data set [5] (Hornblad et al.) is “at least 2 ng/ml”. For the same compound, the Emax in data set [2] (setting [6]) and in data set [2] (setting [7]) was 100% throughout. For the same compound, the “blockade” value in the data set with isolated tracheal muscle is “blocked”. Also, the “Slope of line, increase in heart rate vs. logarithm of corresponding serum conc.” value in the data set with heart rate is on record as 1.04.
As for `CC(C)(C)NCC(O)c1cc(OC(=O)c2ccc(OC(=O)C(C)(C)C)cc2)cc(OC(=O)c2ccc(OC(=O)C(C)(C)C)cc2)c1` (stereo not drawn) [test substance of the invention], the “time with a serum level of terbutaline of 2 ng/ml or more” value in data set [4] is on record as “about 16 hours”.
